Data published in patent publication EP4596570A1, “SRC INHIBITORS AND USES THEREOF” (Universitat de Barcelona, priority 2024, dated 2025).
Entries after “also recorded” stand apart in the source; their conditions may differ.

Tests used:
Format in all cases: cell-based, human
[1] = tested on: SW620-src colorectal cancer cells; test: Cell viability assay (MTT); settings: 72h, varying concentrations, much higher than those used in biological activity assays, Fig. 13
Protocol: (§1) SW620-src colorectal cancer cells were a kind gift of Dr. Serge Roche group. These cells have been stably transfected with human Src as described in Aponte, E., et al. (2021). "Regulation of Src tumor activity by its N-terminal intrinsically disordered region." Oncogene, 41: 960-970.. SW620-src colorectal cancer cells were grown in DMEM supplemented with 10% FBS (Gibco 10500-064), 1% GlutaMAX (Gibco 35050038) 1% P/S (Corning 30-002-CI). Cell lines were grown at 37°C with an atmosphere of 95% air, 5% CO2. All the reagents used during cell culture procedures were heated to 37°C in a water bath before its use. Before each assay, the absence of mycoplasma was tested according to a previously described protocol (Molla Kazemiha, V., et al. (2009). "PCR-based detection and eradication of mycoplasmal infections from various mammalian cell lines: a local experience." Cytotechnology 61(3): 117-124).
Cell viability was measured by MTT assay as described before (Kamiloglu, S., et al. (2020). "Guidelines for cell viability assays." Food Frontiers 1(3): 332-349).. […]
SW620-src cells were seeded into 96-well plates containing 100 µL of the growth medium at a density of 10000 cells/well for and cultured for one day. […] Afterwards, the plates were read under 570/690 nm wavelengths by plate reader (Synergy HTX, Biotek).

[2] = tested on: SW620-src colorectal cancer cells; test: Soft agar colony formation assay; settings: Src transformed SW620 colorectal cancer cells, 5 µM of Drugs, 3 weeks, colonies with >50 cells counted; Fig. 11
Protocol: as §1
Cells were plated at density of 10,000 per well in 24-well plates in 0.3% soft agar on top of a base layer of 0.7% agar. The cells were treated with 5 µM of Drugs, and the plates were incubated for 3 weeks, replacing the media every week. […] These experiments were repeated twice with 4 replicates per group, and only colonies with >50 cells were counted.

[3] = tested on: SW620-src colorectal cancer cells; test: Wound healing assay (scratch, cell migration); settings: Src transformed SW620 cells, 24h after scratch; Fig. 12
Protocol: as §1, with “Before each assay, the absence of mycoplasma was tested according to a previously described protocol (Molla Kazemiha, V., et al. (2009). "PCR-based detection and eradication of mycoplasmal infections from various mammalian cell lines: a local experience." Cytotechnology 61(3): 117-124).” left out
Cells were plated into 24-well plate at density of 500,000 cells/well and were cultured until they reach a 100% confluence. […] Each well was photographed in the same site to quantify cell migration after 24 hours. […] The obtained images were analyzed by Imaged software (Schindelin, J., et al. (2012). "Fiji: an open-source platform for biological-image analysis." Nature Methods 9(7): 676-682) using the MRI wound healing tool plugin (Suarez-Arnedo, A., et al. (2020). "An image J plugin for the high throughput image analysis of in vitro scratch wound healing assays." PLOS ONE 15(7): e0232565) . […]

Compound | cell viability [1] | colony formation [2] | migration of cancer cells (scratch wound healing) [3]
COC(=O)N[C@@H](CO)C(=O)N[C@@H](CC(C)C)C(=O)N[C@@H](CCC(=O)O)C(=O)N1CCC[C@H]1c1cn(-c2ccc(-c3ccc(-n4cc([C@@H]5CCCN5C(=O)[C@H](CCC(=O)O)NC(=O)[C@H](CC(C)C)NC(=O)[C@H](CO)NC(=O)OC)nn4)cc3)cc2)nn1 [SLE-Me, Moc-Ser-Leu-Glu-1-Glu-Leu-Ser-Moc] | do not significantly affect cell viability |  | 
COC(=O)NC(C(=O)N1CCC[C@H]1c1cn(-c2ccc(-c3ccc(-n4cc([C@@H]5CCCN5C(=O)C(NC(=O)OC)C(C)C)nn4)cc3)cc2)nn1)C(C)C (stereo partly drawn) [V-Me, Moc-Val-1-Val-Moc] | do not significantly affect cell viability | significantly reduced; also recorded: significantly decrease | significantly reduced; also recorded: significantly impair
Moc-Leu-Lys-1-Lys-Leu-Moc [LK-Me] |  | does not show significant biological activity; also recorded: no effect | does not show significant biological activity; also recorded: no effect
